Test [1] relates to depression-like behavior of mice. Put plainly: forced swim test. The note with it: 0, 2, 5, 20 mg/kg i.p. 30 min before test, dose-dependent, last 4 min of 6 min, n = 8. The format is in vivo. The text has this: Male ICR mice (n = 317 in total) aged 5 weeks and weighing 32 ± 2 g were purchased from Shimizu Laboratory Supplies (Kyoto, Japan). For the social defeat stress test, we used 28 C57BL/6J mice (5 weeks old, Shimizu Laboratory Supplies) and 30 ICR mice (7–8 weeks old, Charles River Labs Japan, Yokohama, Kanagawa, Japan). Mice were maintained for at least 1 week prior to experiments. Animals were kept in groups in plastic cages. They had free access to food and water, and were kept in a 12-h light/dark cycle (08:00–20:00). Experiments were carried out between 10:00 and 18:00 in a quiet and air-conditioned experimental room, in which mice were habituated for at least 30 min before each experiment. Animal experiments were performed in accordance with the guidelines of the Physiological Society of Japan and were approved by the Committees on Animal Experiments at Kansai Medical University and the Kurashiki University of Science and the Arts. Ostruthin was initially dissolved in DMSO at higher concentration (100 mM) and then diluted in phosphate-buffered saline (PBS). The diluted solution was mixed vigorously for more than 10 min before the experiments, and an equal volume of DMSO was added to PBS as a control. […]
The forced swim test was performed in accordance with a method reported previously. […] Mouse was allowed to swim for 6 min and the activity was measured. […]

A further test deals with T1, HERG-1 (Homo sapiens, UniProt Q12809).
T1 construct: expressed in transfected cells
Kind of test: whole-cell patch-clamp of HERG-1 tail currents in 293T cells. The format is cell-based. As to conditions: outward tail current, n = 5. The text has this: (§1) For recordings of K^+ channel currents, we prepared stable cell lines for TREK-1, TWIK-related acid-sensitive K^+ channel (TASK-1), strongly inwardly rectifying K^+ channel (Kir2.1), and human ether-a-go-go-related gene (HERG-1) channels and transiently expressed other channels in 293T cells using a calcium-phosphate transfection method. For the establishment of the stable lines, we used lentiviral vectors, and the preparation methods for the lentiviral vectors were described in our previous report. TR-1 cells, which stably expressed TREK-1 channel and were grown on a small cover glass (3 × 18 mm), were placed in a recording chamber with an internal volume of 200 μl. Whole-cell currents were recorded in Tyrode solution using an Axopatch 200B amplifier (Axon Instruments, Foster City, CA) at 25°C. Tyrode solution contained (in mM): NaCl 140, KCl 5.4, NaH2PO4 0.33, CaCl2 2, MgCl2 1, HEPES 5, and glucose 5.5 (pH 7.4 adjusted with NaOH). […] Perfusion (100 μl/min) was continued to maintain the water level throughout recordings. pH and osmotic pressure of solutions were measured with a pH meter (Horiba, Kyoto, Japan) and a freezing point osmometer (Knauer, Berlin, Germany), respectively. […]
In general terms: The patch-clamp technique gives a direct electrical read-out from membranes.

Test [2] relates to depression-like behavior of mice. Put plainly: tail suspension test. It is filed as in vivo. The text has this:
(§2) Male ICR mice (n = 317 in total) aged 5 weeks and weighing 32 ± 2 g were purchased from Shimizu Laboratory Supplies (Kyoto, Japan). For the social defeat stress test, we used 28 C57BL/6J mice (5 weeks old, Shimizu Laboratory Supplies) and 30 ICR mice (7–8 weeks old, Charles River Labs Japan, Yokohama, Kanagawa, Japan). Mice were maintained for at least 1 week prior to experiments. Animals were kept in groups in plastic cages. They had free access to food and water, and were kept in a 12-h light/dark cycle (08:00–20:00). Experiments were carried out between 10:00 and 18:00 in a quiet and air-conditioned experimental room, in which mice were habituated for at least 30 min before each experiment. Animal experiments were performed in accordance with the guidelines of the Physiological Society of Japan and were approved by the Committees on Animal Experiments at Kansai Medical University and the Kurashiki University of Science and the Arts. Ostruthin was initially dissolved in DMSO at higher concentration (100 mM) and then diluted in phosphate-buffered saline (PBS). The diluted solution was mixed vigorously for more than 10 min before the experiments, and an equal volume of DMSO was added to PBS as a control. PBS and ostruthin were administered intraperitoneally 30 min before mice behavioral tests (0.01 ml/g body weight). Each animal was used only once, except for the wheel running test, which was carried out immediately after elevated plus maze.
The tail suspension test was performed in accordance with a method reported previously. The mouse was hung on a hook using adhesive tape placed 2 cm from the extremity of its tail 50 cm above the table. The amount of time spent immobile was recorded for 5 min.

The subject of test [3] is mice anxiety-like behavior. Put plainly: light/dark box test. It is filed as in vivo. The note with it: n = 8.
Text: as §2
The light/dark box consisted of two compartments with a total exterior size of 46 × 27 × 30 cm. One-third of the box was used as a dark compartment, which was covered with a black wall and lid, and the rest of the area was used as a light compartment. These compartments were connected via a small opening (7 × 7 cm), enabling transition between the two compartments. We placed a mouse in the center of the light area and measured the time spent in the light area and the number of transitions between the light and dark compartments for 5 minutes.

For the next test, the target named is T2, TASK-1 (Homo sapiens, UniProt O14649).
T2 construct: expressed in transfected cells
Kind of test: whole-cell patch-clamp of TASK-1 currents in a 293T cell line. As to conditions: n = 10. The format is cell-based.
Text: as §1

[4] abbreviates: i.p. 30 min before test, vs 0 mg/kg.

The text below walks through data of article PMC6093650, “Antidepressive and anxiolytic effects of ostruthin, a TREK-1 channel activator” (PLoS ONE, 2018).

In general, IC50 refers to the concentration at which inhibition is half-maximal.

T2 sequence (O14649 whole entry, species assumed): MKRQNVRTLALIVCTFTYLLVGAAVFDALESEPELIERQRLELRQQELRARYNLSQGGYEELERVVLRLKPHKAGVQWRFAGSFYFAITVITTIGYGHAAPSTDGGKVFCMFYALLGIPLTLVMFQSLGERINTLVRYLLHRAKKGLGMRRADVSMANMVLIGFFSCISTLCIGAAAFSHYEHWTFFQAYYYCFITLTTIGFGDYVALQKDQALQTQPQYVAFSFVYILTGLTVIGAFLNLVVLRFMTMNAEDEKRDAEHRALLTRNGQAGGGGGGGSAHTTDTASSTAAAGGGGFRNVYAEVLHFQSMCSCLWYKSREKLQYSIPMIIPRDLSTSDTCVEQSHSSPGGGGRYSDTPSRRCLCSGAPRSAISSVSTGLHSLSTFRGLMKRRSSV
T1 sequence (Q12809 whole entry): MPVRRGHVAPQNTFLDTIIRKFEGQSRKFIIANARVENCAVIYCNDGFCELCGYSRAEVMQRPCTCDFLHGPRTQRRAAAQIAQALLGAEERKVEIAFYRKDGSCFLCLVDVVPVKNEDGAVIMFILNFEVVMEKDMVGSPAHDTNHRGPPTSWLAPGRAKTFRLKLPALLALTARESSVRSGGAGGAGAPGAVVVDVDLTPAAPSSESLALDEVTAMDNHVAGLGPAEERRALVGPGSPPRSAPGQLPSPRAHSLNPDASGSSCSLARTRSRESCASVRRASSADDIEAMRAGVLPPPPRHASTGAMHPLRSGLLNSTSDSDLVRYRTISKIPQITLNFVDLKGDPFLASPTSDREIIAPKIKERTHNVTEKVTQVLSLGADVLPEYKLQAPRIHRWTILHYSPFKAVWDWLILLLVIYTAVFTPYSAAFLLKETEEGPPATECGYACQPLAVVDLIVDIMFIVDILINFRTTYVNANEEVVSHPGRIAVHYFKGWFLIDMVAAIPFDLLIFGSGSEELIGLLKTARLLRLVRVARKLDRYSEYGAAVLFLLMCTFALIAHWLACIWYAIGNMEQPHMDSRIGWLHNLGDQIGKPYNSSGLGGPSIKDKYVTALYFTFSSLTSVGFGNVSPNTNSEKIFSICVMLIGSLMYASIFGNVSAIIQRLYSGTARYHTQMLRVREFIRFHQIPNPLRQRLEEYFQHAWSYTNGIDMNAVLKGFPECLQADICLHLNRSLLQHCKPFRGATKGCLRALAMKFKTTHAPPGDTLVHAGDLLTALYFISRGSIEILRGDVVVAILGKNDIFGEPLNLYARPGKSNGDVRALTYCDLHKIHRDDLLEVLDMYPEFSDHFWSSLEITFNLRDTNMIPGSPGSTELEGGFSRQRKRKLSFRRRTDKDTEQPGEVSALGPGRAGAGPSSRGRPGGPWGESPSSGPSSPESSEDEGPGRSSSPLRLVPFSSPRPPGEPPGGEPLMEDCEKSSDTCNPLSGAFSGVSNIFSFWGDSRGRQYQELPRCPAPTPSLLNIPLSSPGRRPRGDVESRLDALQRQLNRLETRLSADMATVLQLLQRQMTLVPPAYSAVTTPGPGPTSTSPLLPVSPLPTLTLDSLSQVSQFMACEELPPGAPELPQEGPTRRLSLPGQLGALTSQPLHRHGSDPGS

Turning to `CC(C)=CCC/C(C)=C/Cc1cc2ccc(=O)oc2cc1O` [ostruthin], the time spent immobile entry in test [1] is listed as “decreased”; in test [2] (amlodipine experiment: single compound vs PBS, ostruthin 5 mg/kg or amlodipine 10 mg/kg, n = 9 and 13), “significantly decreased”; in test [2] (i.p. 30 min before test, 5 min, n = 14, vs PBS) it was “decreased”; in test [2] (ostruthin 5 mg/kg in the presence of amlodipine 10 mg/kg (co-administration)), “no effect”; in test [2] (ostruthin given 30 min after pre-administration of amlodipine, vs secondary PBS, n = 8), “ineffective”. Further, the IC50 at HERG-1 is 216 µM; on TASK-1 it was 41 µM. Moreover, the “time spent in the light box” value is “decreased” in test [3] (20 mg/kg i.p., vs 5 mg/kg) and “significantly increased” in test [3] (setting [4]). Moreover, the results for the “number of transitions between the light and dark boxes” value in test [3] (highest dose (20 mg/kg) i.p.) and in test [3] (setting [4]) were “non-significantly decreased” and “increased”, respectively.
